Experimental data reported in ChEMBL document CHEMBL4622865, “Sulfonamide-based 4-anilinoquinoline derivatives as novel dual Aurora kinase (AURKA/B) inhibitors: Synthesis, biological evaluation and in silico insights” (Bioorg Med Chem, 2020).
Values belong to the molecule of their own block, whether it stands above or below them.

What was measured:
UO-31 = assay: Antitumor activity against human UO31 cells assessed as growth inhibition at 10-'5 M incubated for 48 hrs by SRB assay relative to control; type: functional
Aurora kinase B [1] = biological target: T1, Aurora kinase B (Homo sapiens, UniProt Q96GD4); assay: Inhibition of human Aurora B using [H-LRRASLG] as substrate at 20 uM in presence of [gamma-33P]-ATP incubated for 2 hrs by hotspot kinase assay relative to control
T1 sequence (Q96GD4 whole entry): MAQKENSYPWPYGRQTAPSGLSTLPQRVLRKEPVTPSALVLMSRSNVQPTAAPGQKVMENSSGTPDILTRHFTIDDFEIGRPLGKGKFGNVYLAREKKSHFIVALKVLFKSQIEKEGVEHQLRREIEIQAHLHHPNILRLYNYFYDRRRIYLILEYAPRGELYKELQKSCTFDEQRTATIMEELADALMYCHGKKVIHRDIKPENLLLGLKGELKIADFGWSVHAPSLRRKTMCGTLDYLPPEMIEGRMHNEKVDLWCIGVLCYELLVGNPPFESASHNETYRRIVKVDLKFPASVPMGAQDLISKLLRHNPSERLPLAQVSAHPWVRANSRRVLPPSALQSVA

SNB-75 = assay: Antitumor activity against human SNB75 cells assessed as growth inhibition at 10-'5 M incubated for 48 hrs by SRB assay relative to control; type: functional
CAKI-1 = assay: Antitumor activity against human CAKI-1 cells assessed as growth inhibition at 10-'5 M incubated for 48 hrs by SRB assay relative to control; type: functional
[2] = biological target: T2, Aurora kinase A (Homo sapiens) (UniProt O14965); assay: Inhibition of human Aurora A using [H-LRRASLG] as substrate at 20 uM in presence of [gamma-33P]-ATP incubated for 2 hrs by hotspot kinase assay relative to control
T2 sequence (whole entry): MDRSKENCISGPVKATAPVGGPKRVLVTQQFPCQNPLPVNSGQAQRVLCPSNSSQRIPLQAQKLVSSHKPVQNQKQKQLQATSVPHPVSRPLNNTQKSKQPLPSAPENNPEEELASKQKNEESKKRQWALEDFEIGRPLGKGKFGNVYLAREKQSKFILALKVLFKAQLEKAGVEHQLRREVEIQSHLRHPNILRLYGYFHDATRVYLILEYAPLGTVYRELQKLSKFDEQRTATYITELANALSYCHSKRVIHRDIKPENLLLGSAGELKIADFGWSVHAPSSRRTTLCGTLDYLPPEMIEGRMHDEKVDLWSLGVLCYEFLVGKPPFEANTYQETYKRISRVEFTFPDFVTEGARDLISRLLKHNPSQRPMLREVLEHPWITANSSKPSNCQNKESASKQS

Aurora kinase B [3] = biological target: T1, Aurora kinase B; assay: Inhibition of human Aurora B using [H-LRRASLG] as substrate in presence of [gamma-33P]-ATP incubated for 2 hrs by hotspot kinase assay
Aurora kinase A = biological target: T3, Aurora kinase A (Homo sapiens, UniProt O14965); assay: Inhibition of human Aurora A using [H-LRRASLG] as substrate in presence of [gamma-33P]-ATP incubated for 2 hrs by hotspot kinase assay
T3 sequence (O14965 whole entry): T2 sequence (whole entry)

HCT-116 = assay: Antitumor activity against human HCT116 cells assessed as growth inhibition at 10-'5 M incubated for 48 hrs by SRB assay relative to control; type: functional
786-0 = assay: Antitumor activity against human 786-O cells assessed as growth inhibition at 10-'5 M incubated for 48 hrs by SRB assay relative to control; type: functional
[4] = biological target: Calcium/calmodulin-dependent protein kinase kinase 2 (Homo sapiens) (UniProt Q96RR4); assay: Inhibition of human CAMKK2 using MBP as substrate at 20 uM in presence of [gamma-33P]-ATP incubated for 2 hrs by hotspot kinase assay relative to control
Calcium/calmodulin-dependent protein kinase kinase 2 (Homo sapiens), sequence (Q96RR4 2-588 limits assumed): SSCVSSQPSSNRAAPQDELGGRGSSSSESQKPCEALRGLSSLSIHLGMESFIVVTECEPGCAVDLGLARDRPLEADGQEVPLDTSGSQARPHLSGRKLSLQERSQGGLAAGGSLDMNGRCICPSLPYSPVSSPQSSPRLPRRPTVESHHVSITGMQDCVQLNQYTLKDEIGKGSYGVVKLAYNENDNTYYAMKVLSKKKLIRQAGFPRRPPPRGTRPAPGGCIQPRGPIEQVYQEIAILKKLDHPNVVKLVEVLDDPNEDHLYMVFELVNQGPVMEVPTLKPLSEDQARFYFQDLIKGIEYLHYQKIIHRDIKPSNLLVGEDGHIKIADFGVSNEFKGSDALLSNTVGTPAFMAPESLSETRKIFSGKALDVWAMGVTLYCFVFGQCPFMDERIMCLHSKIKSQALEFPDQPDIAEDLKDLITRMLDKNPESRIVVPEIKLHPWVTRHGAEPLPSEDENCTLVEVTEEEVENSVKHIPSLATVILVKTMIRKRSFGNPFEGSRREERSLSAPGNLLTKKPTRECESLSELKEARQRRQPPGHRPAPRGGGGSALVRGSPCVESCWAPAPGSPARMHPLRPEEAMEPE

[5] = biological target: MAP kinase-activated protein kinase 3 (Homo sapiens) (UniProt Q16644); assay: Inhibition of human MAPKAPK3 using KKLNRTLSVA as substrate at 20 uM in presence of [gamma-33P]-ATP incubated for 2 hrs by hotspot kinase assay relative to control
MAP kinase-activated protein kinase 3 (Homo sapiens), sequence (Q16644 whole entry, looked up): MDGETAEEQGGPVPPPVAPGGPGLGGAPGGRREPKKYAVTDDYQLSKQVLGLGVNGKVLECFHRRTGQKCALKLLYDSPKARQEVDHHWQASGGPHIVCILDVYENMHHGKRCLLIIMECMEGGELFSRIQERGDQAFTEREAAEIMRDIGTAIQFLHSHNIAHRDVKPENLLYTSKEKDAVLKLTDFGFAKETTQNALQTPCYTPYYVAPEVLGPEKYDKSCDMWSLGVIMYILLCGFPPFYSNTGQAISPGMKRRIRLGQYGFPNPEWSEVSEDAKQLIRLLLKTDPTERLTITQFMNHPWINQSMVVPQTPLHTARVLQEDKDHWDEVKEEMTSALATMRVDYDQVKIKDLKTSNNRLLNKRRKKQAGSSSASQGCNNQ

[6] = biological target: Dual specificity testis-specific protein kinase 1 (Homo sapiens) (UniProt Q15569); assay: Inhibition of human TESK1 using cofilin as substrate at 20 uM in presence of [gamma-33P]-ATP incubated for 2 hrs by hotspot kinase assay relative to control
Dual specificity testis-specific protein kinase 1 (Homo sapiens), sequence (Q15569 whole entry, looked up): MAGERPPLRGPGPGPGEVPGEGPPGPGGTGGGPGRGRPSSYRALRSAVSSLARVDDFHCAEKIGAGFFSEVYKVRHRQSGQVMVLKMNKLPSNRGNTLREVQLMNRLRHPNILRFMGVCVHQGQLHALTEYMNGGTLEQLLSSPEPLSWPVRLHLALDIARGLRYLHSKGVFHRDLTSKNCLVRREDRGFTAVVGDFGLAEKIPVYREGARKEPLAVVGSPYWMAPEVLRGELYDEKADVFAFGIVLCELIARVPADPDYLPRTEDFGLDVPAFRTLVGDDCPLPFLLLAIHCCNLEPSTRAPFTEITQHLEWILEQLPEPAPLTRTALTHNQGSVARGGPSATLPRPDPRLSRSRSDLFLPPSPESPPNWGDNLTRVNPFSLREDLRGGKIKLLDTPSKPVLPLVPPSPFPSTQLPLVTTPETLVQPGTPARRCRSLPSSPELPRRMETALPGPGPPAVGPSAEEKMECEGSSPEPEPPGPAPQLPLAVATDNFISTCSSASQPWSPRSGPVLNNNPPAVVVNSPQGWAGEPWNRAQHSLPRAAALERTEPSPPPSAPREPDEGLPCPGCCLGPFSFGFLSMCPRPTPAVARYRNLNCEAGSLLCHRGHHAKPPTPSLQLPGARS

M14 = assay: Antitumor activity against human M14 cells assessed as growth inhibition at 10-'5 M incubated for 48 hrs by SRB assay relative to control; type: functional
A498 = assay: Antitumor activity against human A498 cells assessed as growth inhibition at 10-'5 M incubated for 48 hrs by SRB assay relative to control; type: functional
[7] = biological target: Proto-oncogene tyrosine-protein kinase ROS (Homo sapiens) (UniProt P08922); assay: Inhibition of human ROS/ROS1 using KKKSPGEYVNIEFG as substrate at 20 uM in presence of [gamma-33P]-ATP incubated for 2 hrs by hotspot kinase assay relative to control
Proto-oncogene tyrosine-protein kinase ROS (Homo sapiens), sequence (P08922 whole entry): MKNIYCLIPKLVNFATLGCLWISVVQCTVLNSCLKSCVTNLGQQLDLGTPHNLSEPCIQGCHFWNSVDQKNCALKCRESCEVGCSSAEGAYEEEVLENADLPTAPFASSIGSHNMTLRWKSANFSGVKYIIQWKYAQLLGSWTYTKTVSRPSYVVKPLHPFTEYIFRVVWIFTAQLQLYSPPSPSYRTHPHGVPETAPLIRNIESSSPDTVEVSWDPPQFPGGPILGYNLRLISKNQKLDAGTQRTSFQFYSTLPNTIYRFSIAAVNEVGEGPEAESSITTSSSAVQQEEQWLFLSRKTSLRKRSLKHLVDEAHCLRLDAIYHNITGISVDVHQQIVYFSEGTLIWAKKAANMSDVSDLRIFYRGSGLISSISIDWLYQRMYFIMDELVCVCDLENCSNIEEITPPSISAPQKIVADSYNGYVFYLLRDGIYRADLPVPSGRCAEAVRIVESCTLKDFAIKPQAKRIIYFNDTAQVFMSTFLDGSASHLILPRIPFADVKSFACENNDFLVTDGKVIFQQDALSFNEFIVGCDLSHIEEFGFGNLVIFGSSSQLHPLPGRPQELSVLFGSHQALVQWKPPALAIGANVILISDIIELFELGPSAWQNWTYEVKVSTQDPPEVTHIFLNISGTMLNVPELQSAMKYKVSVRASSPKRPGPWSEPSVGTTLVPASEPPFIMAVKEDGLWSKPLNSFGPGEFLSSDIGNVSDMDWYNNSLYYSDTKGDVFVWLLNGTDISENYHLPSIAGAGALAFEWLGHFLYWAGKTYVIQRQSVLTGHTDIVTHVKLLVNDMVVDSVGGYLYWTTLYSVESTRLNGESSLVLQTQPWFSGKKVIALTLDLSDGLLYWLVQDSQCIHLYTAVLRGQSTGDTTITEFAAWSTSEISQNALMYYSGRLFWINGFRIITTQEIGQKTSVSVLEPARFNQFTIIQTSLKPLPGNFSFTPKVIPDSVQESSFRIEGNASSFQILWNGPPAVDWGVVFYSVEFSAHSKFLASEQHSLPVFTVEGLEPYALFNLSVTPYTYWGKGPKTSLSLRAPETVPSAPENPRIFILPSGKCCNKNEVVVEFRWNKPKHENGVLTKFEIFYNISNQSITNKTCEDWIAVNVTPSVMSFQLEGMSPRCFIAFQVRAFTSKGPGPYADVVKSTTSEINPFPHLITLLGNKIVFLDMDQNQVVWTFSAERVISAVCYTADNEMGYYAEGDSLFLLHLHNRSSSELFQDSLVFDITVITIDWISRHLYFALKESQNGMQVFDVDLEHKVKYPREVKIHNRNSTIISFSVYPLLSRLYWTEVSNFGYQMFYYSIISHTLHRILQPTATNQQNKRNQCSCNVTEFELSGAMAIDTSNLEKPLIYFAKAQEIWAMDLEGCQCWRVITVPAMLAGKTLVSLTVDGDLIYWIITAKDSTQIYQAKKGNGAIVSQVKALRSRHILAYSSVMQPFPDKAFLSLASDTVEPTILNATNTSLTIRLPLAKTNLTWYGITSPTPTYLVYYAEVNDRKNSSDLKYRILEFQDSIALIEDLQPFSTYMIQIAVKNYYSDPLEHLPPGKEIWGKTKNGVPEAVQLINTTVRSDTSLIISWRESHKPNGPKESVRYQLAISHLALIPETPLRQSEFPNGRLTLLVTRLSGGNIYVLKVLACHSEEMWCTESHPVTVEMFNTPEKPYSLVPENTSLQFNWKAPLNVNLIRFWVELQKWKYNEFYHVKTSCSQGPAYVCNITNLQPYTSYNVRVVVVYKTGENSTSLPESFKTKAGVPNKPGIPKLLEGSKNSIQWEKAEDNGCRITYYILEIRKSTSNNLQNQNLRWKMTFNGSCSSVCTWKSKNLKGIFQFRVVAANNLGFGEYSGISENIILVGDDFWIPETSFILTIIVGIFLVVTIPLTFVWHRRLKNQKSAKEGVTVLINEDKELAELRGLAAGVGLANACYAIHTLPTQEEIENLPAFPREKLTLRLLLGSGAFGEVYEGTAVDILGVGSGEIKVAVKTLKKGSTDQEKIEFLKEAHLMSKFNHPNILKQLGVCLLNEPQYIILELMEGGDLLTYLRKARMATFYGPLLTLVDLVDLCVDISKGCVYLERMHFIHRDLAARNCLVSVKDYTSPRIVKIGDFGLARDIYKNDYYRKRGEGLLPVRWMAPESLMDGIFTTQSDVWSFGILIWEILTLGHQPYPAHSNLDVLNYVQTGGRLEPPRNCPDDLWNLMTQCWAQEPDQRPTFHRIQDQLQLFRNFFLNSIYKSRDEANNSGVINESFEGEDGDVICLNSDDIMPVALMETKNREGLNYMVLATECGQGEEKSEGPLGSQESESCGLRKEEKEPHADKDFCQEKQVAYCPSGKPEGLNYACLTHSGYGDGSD

[8] = biological target: Serine/threonine-protein kinase VRK2 (Homo sapiens) (UniProt Q86Y07); assay: Inhibition of human VRK2 using casein as substrate at 20 uM in presence of [gamma-33P]-ATP incubated for 2 hrs by hotspot kinase assay relative to control
Serine/threonine-protein kinase VRK2 (Homo sapiens), sequence (Q86Y07 whole entry): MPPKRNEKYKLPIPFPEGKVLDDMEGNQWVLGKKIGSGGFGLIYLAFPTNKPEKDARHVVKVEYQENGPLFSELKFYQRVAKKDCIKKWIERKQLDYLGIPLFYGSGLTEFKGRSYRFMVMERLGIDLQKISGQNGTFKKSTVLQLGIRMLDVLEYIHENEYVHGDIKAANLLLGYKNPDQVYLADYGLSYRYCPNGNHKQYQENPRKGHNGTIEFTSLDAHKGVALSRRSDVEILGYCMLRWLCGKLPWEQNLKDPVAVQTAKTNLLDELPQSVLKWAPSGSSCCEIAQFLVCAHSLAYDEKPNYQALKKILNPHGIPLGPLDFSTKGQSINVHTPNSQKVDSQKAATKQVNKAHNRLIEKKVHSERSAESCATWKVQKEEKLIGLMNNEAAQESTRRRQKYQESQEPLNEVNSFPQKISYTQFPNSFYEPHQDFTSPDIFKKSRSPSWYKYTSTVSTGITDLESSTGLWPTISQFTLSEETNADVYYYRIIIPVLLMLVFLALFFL

SK-OV-3 = assay: Antitumor activity against human SKOV3 cells assessed as growth inhibition at 10-'5 M incubated for 48 hrs by SRB assay relative to control; type: functional
T47D = assay: Antitumor activity against human T47D cells assessed as growth inhibition at 10-'5 M incubated for 48 hrs by SRB assay relative to control; type: functional
HCT-15 = assay: Antitumor activity against human HCT15 cells assessed as growth inhibition at 10-'5 M incubated for 48 hrs by SRB assay relative to control; type: functional
MCF7 = assay: Antitumor activity against human MCF7 cells assessed as growth inhibition at 10-'5 M incubated for 48 hrs by SRB assay relative to control; type: functional
SN12C = assay: Antitumor activity against human SN12C cells assessed as growth inhibition at 10-'5 M incubated for 48 hrs by SRB assay relative to control; type: functional
KM12 = assay: Antitumor activity against human KM12 cells assessed as growth inhibition at 10-'5 M incubated for 48 hrs by SRB assay relative to control; type: functional
SF-268 = assay: Antitumor activity against human SF268 cells assessed as growth inhibition at 10-'5 M incubated for 48 hrs by SRB assay relative to control; type: functional
ACHN = assay: Antitumor activity against human ACHN cells assessed as growth inhibition at 10-'5 M incubated for 48 hrs by SRB assay relative to control; type: functional
K562 = assay: Antitumor activity against human K562 cells assessed as growth inhibition at 10^-5 M incubated for 48 hrs by SRB assay relative to control; type: functional; conditions: K562, 48 h, read-out: GI
SNB-19 = assay: Antitumor activity against human SNB19 cells assessed as growth inhibition at 10-'5 M incubated for 48 hrs by SRB assay relative to control; type: functional
LOX IMVI = assay: Antitumor activity against human LOXIMVI cells assessed as growth inhibition at 10-'5 M incubated for 48 hrs by SRB assay relative to control; type: functional
SK-MEL-5 = assay: Antitumor activity against human SK-MEL-5 cells assessed as growth inhibition at 10-'5 M incubated for 48 hrs by SRB assay relative to control; type: functional
PC-3 = assay: Antitumor activity against human PC3 cells assessed as growth inhibition at 10-'5 M incubated for 48 hrs by SRB assay relative to control; type: functional
SR = assay: Antitumor activity against human SR cells assessed as growth inhibition at 10-'5 M incubated for 48 hrs by SRB assay relative to control; type: functional
HOP-92 = assay: Antitumor activity against human HOP92 cells assessed as growth inhibition at 10-'5 M incubated for 48 hrs by SRB assay relative to control; type: functional
NCI/ADR-RES = assay: Antitumor activity against human NCI-ADR-RES cells assessed as growth inhibition at 10-'5 M incubated for 48 hrs by SRB assay relative to control; type: functional
NCI-H522 = assay: Antitumor activity against human NCI-H522 cells assessed as growth inhibition at 10-'5 M incubated for 48 hrs by SRB assay relative to control; type: functional
HT-29 = assay: Antitumor activity against human HT-29 cells assessed as growth inhibition at 10-'5 M incubated for 48 hrs by SRB assay relative to control; type: functional
UACC-62 = assay: Antitumor activity against human UACC62 cells assessed as growth inhibition at 10-'5 M incubated for 48 hrs by SRB assay relative to control; type: functional
[9] = Antitumor activity against human […] cells assessed as growth inhibition at 10-'5 M incubated for 48 hrs by SRB assay relative to control; type: functional
RXF 393 = assay: Antitumor activity against human RXF393 cells assessed as growth inhibition at 10-'5 M incubated for 48 hrs by SRB assay relative to control; type: functional
BT-549 = assay: Antitumor activity against human BT549 cells assessed as growth inhibition at 10-'5 M incubated for 48 hrs by SRB assay relative to control; type: functional

Compound: CCOC(=O)c1cnc2ccccc2c1Nc1cccc(S(N)(=O)=O)c1
growth inhibition (GI) (UO-31): >=20% | inhibition (Aurora kinase B [1]): 60.9% | growth inhibition (GI) (SNB-75): >=20% | growth inhibition (GI) (CAKI-1): >=20% | inhibition [2]: 64.3% | IC50 (Aurora kinase B [3]): 12.5 µM | IC50 (Aurora kinase A): 16.6 µM

Compound: CCOC(=O)c1cnc2ccccc2c1Nc1cccc(NS(C)(=O)=O)c1
growth inhibition (GI) (HCT-116): >50% | growth inhibition (GI) (786-0): >=20% | inhibition (Aurora kinase B [1]): 56.6% | growth inhibition (GI) (M14): >50% | inhibition [2]: 71.9% | IC50 (Aurora kinase B [3]): 13.2 µM | IC50 (Aurora kinase A): 13.4 µM

Compound: CCOC(=O)c1cnc2ccc(C)cc2c1Nc1cccc(S(N)(=O)=O)c1
growth inhibition (GI) (HCT-116): >50% | inhibition (Aurora kinase B [1]): 57.7% | growth inhibition (GI) (BT-549): >=20% | inhibition [2]: 14.9% | IC50 (Aurora kinase B [3]): 8.33 µM

The next molecules have a lower IC50 (Aurora kinase B [3]) than those just listed; values first:

inhibition [4]: 33.7% | inhibition (Aurora kinase B [1]): 71.8% | inhibition [5]: 3.1% | inhibition [6]: 4.01% | inhibition [2]: 61.3% | IC50 (Aurora kinase B [3]): 6.89 µM | IC50 (Aurora kinase A): 7.64 µM | inhibition [7]: 20.1% | inhibition [8]: 31.8%
Compound: CCOC(=O)c1cnc2cc(Cl)cc(Cl)c2c1Nc1cccc(S(N)(=O)=O)c1
growth inhibition (GI) (HCT-116): >50% | growth inhibition (GI) (786-0): >50% | growth inhibition (GI) (M14): >=20% | growth inhibition (GI) (A498): >=20%

inhibition (Aurora kinase B [1]): 90.8% | inhibition [2]: 58.6% | IC50 (Aurora kinase B [3]): 0.09 µM | IC50 (Aurora kinase A): 0.93 µM
Compound: CCOC(=O)c1cnc2cc(Cl)cc(Cl)c2c1Nc1cccc(S(=O)(=O)NC)c1
growth inhibition (GI) (SK-OV-3): 31% | growth inhibition (GI) (786-0): >=25% | growth inhibition (GI) (UO-31): 50% | growth inhibition (GI) (T47D): >=25% | growth inhibition (GI) (HCT-15): 34% | growth inhibition (GI) (MCF7): 30% | growth inhibition (GI) (SN12C): >=25% | growth inhibition (GI) (CAKI-1): 41% | growth inhibition (GI) (KM12): 64% | growth inhibition (GI) (SF-268): >=25% | growth inhibition (GI) (ACHN): 39% | inhibition of growth at 10 µM (K562): 35% | growth inhibition (GI) (SNB-19): >=25% | growth inhibition (GI) (LOX IMVI): >=25% | growth inhibition (GI) (SK-MEL-5): 31% | growth inhibition (GI) (PC-3): 30% | growth inhibition (GI) (SR): >=25% | growth inhibition (GI) (HOP-92): 53% | growth inhibition (GI) (NCI/ADR-RES): >=25% | growth inhibition (GI) (NCI-H522): 35% | growth inhibition (GI) (A498): 54% | growth inhibition (GI) (HT-29): >=25% | growth inhibition (GI) (UACC-62): 34% | growth inhibition (GI) [9]: 64% | growth inhibition (GI) (RXF 393): 33%
